EPA's ToxValDB 9.5 (doi:10.2903/j.efsa.2015.4100)
Converted amounts (≈) assume the structure as drawn.

Columns and labels:
Typhlodromus pyri = experiment: LR50; higher = less toxic; conditions: not reported; mortality
Aphidius rhopalosiphi = experiment: LR50; higher = less toxic; conditions: not reported; mortality
Canidae = conditions: chronic; duration: 52 weeks; oral; Dog Other; organ weight
Neomysis kadiakensis = conditions: mortality
Apis mellifera = conditions: acute, mortality
Pimephales promelas = conditions: chronic/long-term; duration: 32 days; reproduction
Daphnia magna = conditions: chronic/long-term; duration: 21 days; reproduction
Bibionidae = conditions: chronic/long-term; duration: 28 days; reproduction
Oncorhynchus mykiss = conditions: acute; duration: 96 hours; mortality

SMILES: CNC(=O)C(OC)c1ccccc1COc1cc(C)ccc1C (centres undefined) [Mandestrobin]
- LR50 (Typhlodromus pyri): > 1000 g/ha
- LR50 (Aphidius rhopalosiphi): > 1000 g/ha
- NOAEL (Canidae): 19 mg/kg-day
- LC50 (Neomysis kadiakensis; acute, duration: 96 hours): 0.43 µg/mL (≈ 1.37 µM)
- NOEC (Neomysis kadiakensis; chronic/long-term, duration: 36 days): 0.0036 mg/L
- LD50 (Apis mellifera; dermal): > 100 µg/piece
- LD50 (Apis mellifera; oral, unspecified): > 111 µg/piece
- LC50 (Tagia sp.; acute, duration: 14 days, mortality): 84 mg/kg
- NOEC (Tagia sp.; chronic/long-term, duration: 56 days): 3.75 mg/kg
- NOEC (Pimephales promelas): 0.15 mg/L
- NOEC (Daphnia magna): 0.56 mg/L
- NOEC (Bibionidae): 8.1 mg/L
- LD50 (Rattus norvegicus; acute, oral, mortality): > 200 mg/kg-day
- NOAEL (Rattus norvegicus; reproduction developmental): 163 mg/kg-day
- LOAEL (Rattus norvegicus; reproduction developmental, organ weight): 60.2 mg/kg-day
- LC50 (Oncorhynchus mykiss): 0.84 µg/mL (≈ 2.68 µM)
- LC50 (Colinus virginianus; acute, duration: 8 days, oral, diet, mortality): > 1340 mg/kg-day
- LD50 (Colinus virginianus; acute, oral, mortality): > 2250 mg/kg-day
- NOEC (Colinus virginianus; reproduction developmental, duration: 21 weeks, reproduction): 91.1 mg/kg-day
